Data from the supplement of paper PMC13380429.
± gives the standard deviation of the averaged measurements.

What was measured:
Settings in all cases: 72 h
[1] = tested on: Calu-3; assay: relative viability EC50 (midpoint between 100% and the lowest measured viability); higher = less toxic
[2] = tested on: Caco-2; assay: as above
[3] = tested on: Vero E6; assay: as above
[4] = tested on: HepG2; assay: as above
[5] = tested on: U2OS; assay: as above
[6] = tested on: Calu-3; assay: cell viability relative to DMSO; higher = less toxic
[7] = tested on: Caco-2; assay: as above
[8] = tested on: Vero E6; assay: as above
[9] = tested on: HepG2; assay: as above
[10] = tested on: U2OS; assay: as above
[11] = tested on: Calu-3; assay: drug sensitivity score (DSS) for viability; higher = more toxic; extreme values may be limits of the assay
[12] = tested on: Caco-2; assay: as above
[13] = tested on: Vero E6; assay: as above
[14] = tested on: HepG2; assay: as above
[15] = tested on: U2OS; assay: as above

| SMILES | relative viability EC50 [1] [µM] | relative viability EC50 [2] [µM] | relative viability EC50 [3] [µM] | relative viability EC50 [4] [µM] | relative viability EC50 [5] [µM] | cell viability ([6]; 1 nM) [%] | cell viability ([6]; 10 nM) [%] | cell viability ([6]; 100 nM) [%] | cell viability ([6]; 1000 nM) [%] | cell viability ([6]; 10000 nM) [%] | cell viability ([7]; 1 nM) [%] | cell viability ([7]; 10 nM) [%] | cell viability ([7]; 100 nM) [%] | cell viability ([7]; 1000 nM) [%] | cell viability ([7]; 10000 nM) [%] | cell viability ([8]; 1 nM) [%] | cell viability ([8]; 10 nM) [%] | cell viability ([8]; 100 nM) [%] | cell viability ([8]; 1000 nM) [%] | cell viability ([8]; 10000 nM) [%] | cell viability ([9]; 1 nM) [%] | cell viability ([9]; 10 nM) [%] | cell viability ([9]; 100 nM) [%] | cell viability ([9]; 1000 nM) [%] | cell viability ([9]; 10000 nM) [%] | cell viability ([10]; 1 nM) [%] | cell viability ([10]; 10 nM) [%] | cell viability ([10]; 100 nM) [%] | cell viability ([10]; 1000 nM) [%] | cell viability ([10]; 10000 nM) [%] | drug sensitivity score [11] | drug sensitivity score [12] | drug sensitivity score [13] | drug sensitivity score [14] | drug sensitivity score [15] |
| --- | --- | --- | --- | --- | --- | --- | --- | --- | --- | --- | --- | --- | --- | --- | --- | --- | --- | --- | --- | --- | --- | --- | --- | --- | --- | --- | --- | --- | --- | --- | --- | --- | --- | --- | --- |
| Cc1cc(O)cc(C)c1Cl [chloroxylenol] | > 10 | > 10 | > 10 | > 10 | > 10 | 104 | 108 | 94.7 | 105 | 95.5 | 99.8 | 101 | 93.2 | 92 | 89.3 | 101 | 101 | 96.9 | 99.1 | 104 | 90.6 | 92 | 105 | 104 | 94 | 102 | 106 | 97.3 | 99.8 | 95.4 | 0 | 0.3 | 0 | 0 | 0 |
| CN(C)CC[C@@H](c1ccc(Cl)cc1)c1ccccn1 [chlorphenamine] | > 10 | > 10 | > 10 | > 10 | > 10 | 97.8 ± 1.2 | 95.2 ± 1.8 | 93.3 ± 3.8 | 97.7 ± 3.3 | 96.4 ± 14 | 102 ± 3.8 | 100 ± 2.9 | 102 | 98.8 ± 3.8 | 93.05 ± 0.35 | 103 ± 6.3 | 103 ± 6.7 | 99.1 ± 1.3 | 95.4 ± 3.7 | 96.8 ± 3.2 | 102 ± 2 | 113.5 ± 0.71 | 96.4 ± 2.8 | 94.7 ± 2.3 | 99.2 ± 10 | 98 ± 3.7 | 97.8 ± 0.71 | 94.7 ± 1.7 | 95.2 ± 2.4 | 93 ± 2.6 | 0 | 0 | 0 | 0 | 0 |
| NC(=O)OCC(O)COc1ccc(Cl)cc1 (stereo not given) [chlorphensin-carbamate] | > 10 | > 10 | > 10 | > 10 | > 10 | 92.6 | 96.3 | 91.6 | 85.5 | 94.2 | 100 | 109 | 92 | 117 | 93.3 | 110 | 95.5 | 105 | 96.5 | 103 | 91.7 | 97 | 100 | 100 | 100 | 99.6 | 99 | 96.3 | 98.2 | 94.3 | 0 | 0 | 0 | 0 | 0 |
| Oc1cc(O)c2c(c1)O[C@H](c1ccc(O)c(O)c1)[C@@H](O)C2 [cianidanol] | > 10 | > 10 | > 10 | > 10 | > 10 | 96.9 | 101 | 97.4 | 107 | 101 | 89.8 | 89.6 | 92.6 | 90.4 | 92.6 | 98 | 88.5 | 103 | 94.5 | 113 | 100 | 99.8 | 84.6 | 102 | 109 | 93.9 | 96.2 | 95.6 | 98.5 | 100 | 0 | 0 | 0 | 0 | 0 |
| CC(C(=O)O)c1ccc2c(c1)Cc1ccccc1-2 (stereo not given) [cicloprofen] | > 10 | > 10 | > 10 | > 10 | > 10 | 95.4 | 103 | 97.6 | 93.7 | 90.5 | 96.8 | 97.9 | 99.9 | 102 | 107 | 104 | 101 | 101 | 93.8 | 101 | 101 | 93.7 | 106 | 95.7 | 112 | 96.9 | 98 | 94.4 | 98.5 | 106 | 0 | 0 | 0 | 0 | 0 |
| C=C[C@H]1CN2CC[C@H]1C[C@H]2[C@H](O)c1ccnc2ccccc12 [cinchonidine] | > 10 | > 10 | > 10 | > 10 | > 10 | 95.2 ± 1.6 | 102 ± 2.5 | 100 ± 4 | 98.7 ± 5 | 106 ± 5.8 | 94.8 ± 2.2 | 98.6 ± 0.42 | 99.8 ± 11 | 114 ± 16 | 116 ± 5.9 | 104 ± 4 | 105 ± 5.8 | 106 ± 0.21 | 95.55 ± 0.64 | 97.1 ± 1.7 | 104 ± 7.8 | 94.5 ± 1.2 | 97.05 ± 0.35 | 92 ± 0.42 | 94.2 ± 2.8 | 98.35 ± 0.071 | 103 ± 2 | 97.85 ± 0.78 | 102 ± 1.2 | 99.5 ± 4.2 | 0 | 0 | 0 | 0 | 0 |
| CN1CC(=O)NC1=N [creatinine] | > 10 | > 10 | > 10 | > 10 | > 10 | 97.2 | 99.7 | 85 | 95.7 | 87.5 | 95.8 | 96.6 | 96.9 | 102 | 99.1 | 100 | 97 | 93.9 | 96.1 | 98.7 | 97.4 | 97.3 | 104 | 90.9 | 103 | 100 | 99.5 | 97.3 | 98.4 | 95.5 | 0.2 | 0 | 0 | 0 | 0 |
